Reference: patent US20260335205A1, “ACTIVE AGENT MODULATING THE ACTIVITY OF AN ION CHANNEL FOR USE IN REGULATION OF SKIN PIGMENTATION” (priority 2022, published 2026)

How the values were obtained:
[1] = test system: epidermal melanin content in human skin organ culture; test: Epidermal melanin content (Warthin-Starry / Fontana Masson histochemistry, quantitative histomorphometry) in ex vivo human skin organ culture; format: cell-based
Protocol: (§1) Samples of human abdominal, temporal, and occipital skin were obtained with written patient consent and under ethical approval from healthy adult human subjects during elective plastic surgery performed for cosmetic reasons. Full-thickness human skin samples were prepared as 4-6 mm punches, placed on filter paper, and cultured at the air-liquid interphase under serum-free conditions in William's E medium supplemented only with insulin, hydrocortisone and L-glutamine, as described previously.
For topical application of menthol (Sigma), a TRPM8 activator, a stock (5 M) was prepared in ethanol and dissolved at 37 °C at a final concentration of 1 mM in a 30% v/v solution of Polyethylene glycol 6000 (Sigma) in ethanol. For topical application of N-(3-Aminopropyl)-2-[(3-methylphenyl)methoxy]-N-(2-thienylmethyl)benzamide hydrochloride (AMTB) (Sigma), an TRPM8 inhibitor, a stock (50 mM) was prepared in water and dissolved at 37 °C at a final concentration of 10 μM in a 30% v/v solution of Polyethylene glycol 6000 (Sigma) in ethanol. Two μL droplets of this viscous solution containing menthol (1 mM), AMTB (10 μM), their combination, or ethanol as vehicle control were applied daily (up to 3 days) to the epidermis of skin biopsies.
Histochemical visualization of melanin in skin sections was performed using the Warthin-Starry Stain Kit (Abcam) or Fontana Masson histochemistry. For Warthin-Starry histochemistry, formalin-fixed human skin/HF frozen sections were rinsed in distilled water and incubated with AgNO3(0.5 % in acidulated water) for 30 seconds at 50 °C. Next, the sample was incubated with developer solution (0.42% AgNO3, 5% Gelatin, and 0.15% hydroquinone in acidulated water) and incubated for 2-5 minutes at 50 °C. The reaction was stopped by consecutive rinses in hot (60 °C) tap water for 2 minutes. Incubation with Na2S2O3 (5 % in distilled water) for 1 minute, followed by 3 minutes of consecutive washes in tap water can also be used to remove unbound AgNO3 and to tone the brown coloring of melanin black. Brief counterstain with hematoxylin was used to visualize nuclei. […]
Images were then obtained with a digital microscope (Keyence). Quantitative histomorphometric analysis was performed by assessing the relative intensity and the area of melanin stain in standardized reference areas with ImageJ (NIH; Bethesda, MD, USA). Briefly, for each parameter evaluated, multiple non-consecutive skin sections (at least 280 μm apart from each other) per punch biopsy were stained. Two skin punch biopsies were analyzed per experimental group unless indicated otherwise. The melanin content was then calculated based on the product of the fraction of area occupied by melanin and the mean shade of gray of the melanin, as described in detail elsewhere. […]

tyrosinase = test: In situ tyrosinase activity (quantitative histomorphometry) in ex vivo human skin organ culture; format: cell-based; details: after 3 days
Protocol: Samples of human abdominal, temporal, and occipital skin were obtained with written patient consent and under ethical approval from healthy adult human subjects during elective plastic surgery performed for cosmetic reasons. Full-thickness human skin samples were prepared as 4-6 mm punches, placed on filter paper, and cultured at the air-liquid interphase under serum-free conditions in William's E medium supplemented only with insulin, hydrocortisone and L-glutamine, as described previously. […]
For the in situ detection of tyrosinase activity (the enzyme that catalyzes the rate-limiting step of melanin synthesis), human skin cryosections were fixed in an acetone/methanol solution (1:1 ratio) and blocked with H2O2 (0.3 % in PBS) for 15 minutes. […] Tyrosinase activity was detected with the TSA™ Biotin System (Akoya Biosciences). […]
Image acquisition and quantitative histomorphometric analysis were performed similar to as described for the Warthin-Starry technique, with a special emphasis on assessing the relative intensity and the area of tyrosinase activity-specific immunoreactivity (IR) in the basal epidermal layer (i.e., the epidermal compartment where melanocytes reside).

gp100 = test: gp100-specific immunoreactivity (immunohistochemistry, quantitative histomorphometry) in ex vivo human skin organ culture; format: cell-based; details: after 3 days
Protocol: as §1
For topical application of menthol (Sigma), a TRPM8 activator, a stock (5 M) was prepared in ethanol and dissolved at 37 °C at a final concentration of 1 mM in a 30% v/v solution of Polyethylene glycol 6000 (Sigma) in ethanol. […]
After consecutive rinses in PBS, samples were incubated with rhodamine-conjugated secondary antibody (Jackson ImmunoResearch) diluted 1:200 in normal goat serum (2% in PBS) for 45 minutes at RT. […] Image acquisition and quantitative histomorphometric analysis were performed similar to as described for the Warthin-Starry technique, with a special emphasis on assessing the relative intensity and the area of gp100-specific immunoreactivity (IR) in the basal epidermal layer (i.e., the epidermal compartment where melanocytes reside).

melanocyte tyrosinase = details: background, phenolic compounds (e.g., hydroquinone and derivatives); cited from earlier work
[2] = background; cited from earlier work
[3] = topical menthol 1 mM, after 3 days, vs vehicle, Warthin-Starry (FIG. 1)

Question: Which “prevention of menthol-induced increase of epidermal melanin content” value ([1]; topical AMTB 10 μM with menthol 1 mM, after 3 days, vs vehicle, Warthin-Starry (FIG. 4)) does the source give for Cc1cccc(COc2ccccc2C(=O)N(CCCN)Cc2cccs2)c1.Cl [AMTB, N-(3-Aminopropyl)-2-[(3-methylphenyl)methoxy]-N-(2-thienylmethyl)benzamide hydrochloride] here?
Answer: prevented the effect of the TRPM8 agonist menthol (1 mM) to increase epidermal melanin content

Question: And the “prevention of menthol-induced increase of tyrosinase activity in the basal epidermal layers” value (tyrosinase; topical AMTB 10 μM with menthol 1 mM, vs vehicle (FIG. 6))?
Answer: prevented the effect of the TRPM8 agonist menthol (1 mM) to increase tyrosinase activity in the basal epidermal layers

Question: And the “prevention of menthol-induced increase of gp100-specific IR in the basal epidermal layers” value (gp100; topical AMTB 10 μM with menthol 1 mM, vs vehicle (FIG. 5))?
Answer: prevented the effect of the TRPM8 agonist menthol (1 mM) to increase gp100-specific IR in the basal epidermal layers

Question: With CC1CCC(C(C)C)C(O)C1 (centres unmarked) [menthol] as the compound, how does the epidermal melanin content [1, 3] read?
Answer: markedly increases epidermal melanin content

Question: What about the “melanin content in basal and suprabasal layers” value [1, 3] of the same compound?
Answer: increased the melanin content not only in the basal layer (i.e., the epidermal compartment where melanocytes reside) but also in the suprabasal layers

Question: What about the “epidermal melanin content verified by two independent histochemical technologies” value ([1]; topical, human ex vivo skin organ cultures) of the same compound?
Answer: upregulated epidermal melanin content

Question: What about the “intensity level of tyrosinase activity in the basal epidermal layers” value (tyrosinase; topical menthol 1 mM, vs vehicle (FIG. 3)) of the same compound?
Answer: markedly increases the intensity level of tyrosinase activity in the basal epidermal layers

Question: And the “intensity level of gp100-specific IR in the basal epidermal layers” value (gp100; topical menthol 1 mM, vs vehicle (FIG. 2))?
Answer: markedly increases the intensity level of gp100-specific IR in the basal epidermal layers

Question: Which “inhibition of melanocyte tyrosinase” value (melanocyte tyrosinase) does the source give for Oc1ccc(O)cc1 [hydroquinone] here?
Answer: shown to inhibit melanocyte tyrosinase

Question: And the DNA damage [2]?
Answer: shown to cause DNA damage

Question: What about the chronic adverse effects [2] of the same compound?
Answer: contact dermatitis, sclera and nail hyperpigmentation, impaired wound healing
